Measured values published in PMC8523698, “Preclinical characterization of an intravenous coronavirus 3CL protease inhibitor for the potential treatment of COVID19” (Nature Communications, 2021).
pIC50: −log10 of the molar value. “And” between values parts separate entries of the source, which are not always exact repeats. Equal values may be shown once. Read-outs that look alike come from different tables or passages of the source.

Key:
[1] = Rat pharmacokinetic study; details: for Vd: Vdss
[2] = Plasma protein binding by equilibrium dialysis; details: monkey plasma, 3.44 uM; for fraction unbound at 6 h, 3.44 uM: plasma
CYP3A4/5 = test: Time-dependent inhibition of CYP enzymes in human liver microsomes; details: pooled HLM
CYP2D6 = CYP2D6 (Homo sapiens, UniProt P10635); test: Reversible CYP inhibition in human liver microsomes
Sequence of CYP2D6 (P10635 whole entry): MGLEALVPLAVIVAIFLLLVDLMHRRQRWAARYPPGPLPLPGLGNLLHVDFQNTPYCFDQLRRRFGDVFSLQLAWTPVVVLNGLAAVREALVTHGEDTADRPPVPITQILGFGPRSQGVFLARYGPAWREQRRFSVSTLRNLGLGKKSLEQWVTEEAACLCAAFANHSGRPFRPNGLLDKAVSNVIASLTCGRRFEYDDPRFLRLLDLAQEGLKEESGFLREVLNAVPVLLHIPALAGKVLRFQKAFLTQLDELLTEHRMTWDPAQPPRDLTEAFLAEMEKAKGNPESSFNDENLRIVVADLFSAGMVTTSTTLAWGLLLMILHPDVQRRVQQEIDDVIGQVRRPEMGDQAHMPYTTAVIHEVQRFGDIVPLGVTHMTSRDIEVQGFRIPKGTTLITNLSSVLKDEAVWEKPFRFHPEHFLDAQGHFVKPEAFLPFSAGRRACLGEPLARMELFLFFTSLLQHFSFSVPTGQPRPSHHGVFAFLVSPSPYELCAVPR

[3] = Plasma protein binding by equilibrium dialysis; details: dog plasma, 3.44 uM; for fraction unbound at 6 h, 3.44 uM: dog, plasma
MATE1 = target: T1, MATE1 (Homo sapiens, UniProt Q96FL8); test: Transporter inhibition using transfected HEK293 cells; details: IC50, [14C]Metformin (20 µM)
T1 sequence (Q96FL8 1-570): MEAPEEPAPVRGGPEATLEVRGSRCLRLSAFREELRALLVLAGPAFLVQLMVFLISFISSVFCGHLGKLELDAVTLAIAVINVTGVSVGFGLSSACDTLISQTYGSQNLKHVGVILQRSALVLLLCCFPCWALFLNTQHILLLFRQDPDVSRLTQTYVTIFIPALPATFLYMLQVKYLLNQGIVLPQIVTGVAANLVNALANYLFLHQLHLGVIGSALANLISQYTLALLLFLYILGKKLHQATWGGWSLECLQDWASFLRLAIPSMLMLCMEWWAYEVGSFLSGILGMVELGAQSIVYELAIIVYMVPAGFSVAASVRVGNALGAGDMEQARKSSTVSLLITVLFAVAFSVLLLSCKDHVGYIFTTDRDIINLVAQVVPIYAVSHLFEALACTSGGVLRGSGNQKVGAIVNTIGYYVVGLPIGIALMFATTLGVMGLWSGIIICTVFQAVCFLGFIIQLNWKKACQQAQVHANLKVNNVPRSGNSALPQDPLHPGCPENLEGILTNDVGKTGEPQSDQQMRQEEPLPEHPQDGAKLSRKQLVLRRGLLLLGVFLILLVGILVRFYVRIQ

OAT1 = target: T2, OAT1 (Homo sapiens, UniProt Q4U2R8); test: as above; details: IC50, [3H]PAH (0.5 µM)
T2 sequence (Q4U2R8 1-563): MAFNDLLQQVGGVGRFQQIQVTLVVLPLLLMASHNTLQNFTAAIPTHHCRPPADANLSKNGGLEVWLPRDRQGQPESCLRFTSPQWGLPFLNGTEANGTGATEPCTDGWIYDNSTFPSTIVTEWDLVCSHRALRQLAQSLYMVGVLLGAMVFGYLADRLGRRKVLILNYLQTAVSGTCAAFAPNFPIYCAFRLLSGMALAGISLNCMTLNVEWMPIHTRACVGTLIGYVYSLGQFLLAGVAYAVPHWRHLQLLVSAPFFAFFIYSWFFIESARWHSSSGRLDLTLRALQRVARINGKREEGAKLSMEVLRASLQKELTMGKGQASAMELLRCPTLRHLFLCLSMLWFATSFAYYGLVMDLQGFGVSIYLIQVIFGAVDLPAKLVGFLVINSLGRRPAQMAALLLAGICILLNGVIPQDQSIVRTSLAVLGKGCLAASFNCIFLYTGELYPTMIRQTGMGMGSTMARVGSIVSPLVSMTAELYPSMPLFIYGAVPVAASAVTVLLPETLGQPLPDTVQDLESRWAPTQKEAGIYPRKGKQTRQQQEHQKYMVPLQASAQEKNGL

[4] = rat, PF-07304814 prodrug dosed […] intravenous, individual rats, […]

## COc1cccc2[nH]c(C(=O)N[C@@H](CC(C)C)C(=O)N[C@@H](C[C@@H]3CCNC3=O)C(=O)COP(=O)(O)O)cc12 [PF-07304814]
[1]; male, Wistar-Hannover, rat, plasma, iv, CL, rat IV, PF-07304814 […] (n=2, range), PF-00835231 2mg/kg (n=3, ± SD)
  clearance: 194 mL/min/kg
[1]; male, Wistar-Hannover, rat, plasma, iv, Terminal T1/2, rat IV, PF-07304814 […] (n=2, range), PF-00835231 2mg/kg (n=3, ± SD)
  half-life: 18 min
[1]; male, Wistar-Hannover, rat, plasma, iv, rat IV, PF-07304814 […] (n=2, range), PF-00835231 2mg/kg (n=3, ± SD)
  Vd: 0.58 L/kg
[1]; male, Wistar-Hannover, rat, plasma, iv, […], Clearance, Mean Data, PF-07304814 prodrug dosed […] intravenous, mean
  clearance: 194 mL/min/kg
[1]; male, Wistar-Hannover, rat, plasma, iv, […], Clearance, PF-07304814 prodrug dosed […] intravenous, individual rats
  clearance: 168 mL/min/kg
[1]; male, Wistar-Hannover, rat, plasma, iv, […], Half life, Mean Data, PF-07304814 prodrug dosed […] intravenous, mean
  half-life: 18 min
[1]; male, Wistar-Hannover, rat, plasma, iv, […], Half life, PF-07304814 prodrug dosed […] intravenous, individual rats
  half-life: 21.6 min
[1]; male, Wistar-Hannover, rat, plasma, iv, […], Mean Data, PF-07304814 prodrug dosed […] intravenous, mean
  Vd: 0.58 L/kg
[1]; male, Wistar-Hannover, rat, plasma, iv, […], PF-07304814 prodrug dosed […] intravenous, individual rats
  Vd: 0.567 L/kg
[1]; rat IV, PF-07304814 […], PF-00835231 2mg/kg
  %unchanged in urine: < 0.1%
[1]; [4]
  Half life: 13.8 min
  Vdss: 0.592 L/kg
  clearance: 220 mL/min/kg
[2]; both, Cynomologous, cynomolgus monkey, pH 7.4, Individual fraction unbound, Cynomologous, male and female, Day 1
  fraction unbound at 6 h, 3.44 uM: 0.388
[2]; both, Cynomologous, cynomolgus monkey, pH 7.4, Individual fraction unbound, Cynomologous, male and female, Day 2
  fraction unbound at 6 h, 3.44 uM: 0.356
[2]; both, Cynomologous, cynomolgus monkey, pH 7.4, Individual fraction unbound, Cynomologous, male and female, Day 3
  fraction unbound at 6 h, 3.44 uM: 0.442
[2]; Cynomologous, male and female, Day 1
  Individual fraction unbound: 0.366 and 0.39 and 0.393
[2]; Cynomologous, male and female, Day 2
  Individual fraction unbound: 0.318 and 0.315 and 0.319
[2]; Cynomologous, male and female, Day 3
  Individual fraction unbound: 0.37 and 0.354 and 0.347
[2]; monkey, pH 7.4, fraction unbound Geomean, n=12
  fraction unbound at 6 h, 3.44 uM: 0.361
CYP3A4/5
  time-dependent inhibition (TDI) signal: no evidence of TDI
CYP2D6
  pIC50: < 4.00
CYP2D6; CYP 2D6, 0.01 µM, 30-Minute Preincubation, 0.01 µM
  Percent of Control Activity: 97.3% and 99.6%
CYP2D6; CYP 2D6, 0.01 µM, Zero-Minute Preincubation, 0.01 µM
  Percent of Control Activity: 101.0% and 93.7%
CYP2D6; CYP 2D6, 0.158 µM, 30-Minute Preincubation, 0.158 µM
  Percent of Control Activity: 96.0%
CYP2D6; CYP 2D6, 0.158 µM, Zero-Minute Preincubation, 0.158 µM
  Percent of Control Activity: 97.1% and 95.4%
CYP2D6; CYP 2D6, 0.398 µM, 30-Minute Preincubation, 0.398 µM
  Percent of Control Activity: 95.2% and 103.0%
CYP2D6; CYP 2D6, 0.398 µM, Zero-Minute Preincubation, 0.398 µM
  Percent of Control Activity: 98.0% and 97.1%
CYP2D6; CYP 2D6, 1 µM, 30-Minute Preincubation, 1 µM
  Percent of Control Activity: 95.2% and 99.6%
CYP2D6; CYP 2D6, 1 µM, Zero-Minute Preincubation, 1 µM
  Percent of Control Activity: 94.2%
CYP2D6; CYP 2D6, 15.8 µM, 30-Minute Preincubation, 15.8 µM
  Percent of Control Activity: 101.2% and 99.3%
CYP2D6; CYP 2D6, 15.8 µM, Zero-Minute Preincubation, 15.8 µM
  Percent of Control Activity: 97.0%
CYP2D6; CYP 2D6, 39.8 µM, 30-Minute Preincubation, 39.8 µM
  Percent of Control Activity: 99.9% and 102.0%
CYP2D6; CYP 2D6, 39.8 µM, Zero-Minute Preincubation, 39.8 µM
  Percent of Control Activity: 95.5% and 101.2%
CYP2D6; CYP 2D6, 100 µM, 30-Minute Preincubation, 100 µM
  Percent of Control Activity: 93.7% and 95.4%
CYP2D6; CYP 2D6, 100 µM, Zero-Minute Preincubation, 100 µM
  Percent of Control Activity: 68.1% and 92.0% and 98.1%
CYP2D6; Dextromethorphan O-demethylation, T0
  pIC50: < 4.00
CYP2D6; human, microsomes, pH 7.4, Percent of Control Activity, CYP 2D6, 0.01 µM, 30-Minute Preincubation
  activity at 0.01 µM: 101%
CYP2D6; human, microsomes, pH 7.4, Percent of Control Activity, CYP 2D6, 0.01 µM, Zero-Minute Preincubation
  activity at 0.01 µM: 99.1%
CYP2D6; human, microsomes, pH 7.4, Percent of Control Activity, CYP 2D6, 0.158 µM, 30-Minute Preincubation
  activity at 0.158 µM: 103%
CYP2D6; human, microsomes, pH 7.4, Percent of Control Activity, CYP 2D6, 0.158 µM, Zero-Minute Preincubation
  activity at 0.158 µM: 102%
CYP2D6; human, microsomes, pH 7.4, Percent of Control Activity, CYP 2D6, 0.398 µM, 30-Minute Preincubation
  activity at 0.398 µM: 103%
CYP2D6; human, microsomes, pH 7.4, Percent of Control Activity, CYP 2D6, 0.398 µM, Zero-Minute Preincubation
  activity at 0.398 µM: 101%
CYP2D6; human, microsomes, pH 7.4, Percent of Control Activity, CYP 2D6, 1 µM, 30-Minute Preincubation
  activity at 1 µM: 104%
CYP2D6; human, microsomes, pH 7.4, Percent of Control Activity, CYP 2D6, 1 µM, Zero-Minute Preincubation
  activity at 1 µM: 98.7%
CYP2D6; human, microsomes, pH 7.4, Percent of Control Activity, CYP 2D6, 15.8 µM, 30-Minute Preincubation
  activity at 15.8 µM: 102%
CYP2D6; human, microsomes, pH 7.4, Percent of Control Activity, CYP 2D6, 15.8 µM, Zero-Minute Preincubation
  activity at 15.8 µM: 106%
CYP2D6; human, microsomes, pH 7.4, Percent of Control Activity, CYP 2D6, 39.8 µM, 30-Minute Preincubation
  activity at 39.8 µM: 102%
CYP2D6; human, microsomes, pH 7.4, Percent of Control Activity, CYP 2D6, 39.8 µM, Zero-Minute Preincubation
  activity at 39.8 µM: 102%
CYP2D6; human, microsomes, pH 7.4, Percent of Control Activity, CYP 2D6, 100 µM, 30-Minute Preincubation
  activity at 100 µM: 102%
[3]; both, Beagle, pH 7.4, Individual fraction unbound, Beagle, male and female, Day 1
  fraction unbound at 6 h, 3.44 uM: 0.322
[3]; both, Beagle, pH 7.4, Individual fraction unbound, Beagle, male and female, Day 2
  fraction unbound at 6 h, 3.44 uM: 0.344
[3]; both, Beagle, pH 7.4, Individual fraction unbound, Beagle, male and female, Day 3
  fraction unbound at 6 h, 3.44 uM: 0.303
[3]; Beagle, male and female, Day 1
  Individual fraction unbound: 0.288 and 0.267 and 0.276
[3]; Beagle, male and female, Day 2
  Individual fraction unbound: 0.33 and 0.389 and 0.349
[3]; Beagle, male and female, Day 3
  Individual fraction unbound: 0.301 and 0.285 and 0.313
[3]; pH 7.4, fraction unbound Geomean, n=12
  fraction unbound at 6 h, 3.44 uM: 0.312
MATE1
  pIC50: < 3.52
OAT1
  pIC50: < 3.52
